Measured values as given in patent publication US5866681A, “Thrombin receptor antagonists” (priority 1995, dated 1999).
*1 amine or outer side, *2 acyl side, *3 side chain or, on linkers, in order; H or OH if unused. Where a SMILES comes first, the peptide text is derived from it. [ ]: non-standard residue; d: D form. The star is where a group is joined. X18 = CN(CC(c1ccccc1)c1ccccc1)[C@@H](Cc1ccccc1)C(=O)*; X25 = CN(Cc1ccc(-c2ccccc2)cc1)[C@@H](Cc1ccccc1)C(=O)*; X1 = CN(Cc1cccc(Oc2ccccc2)c1)[C@@H](Cc1ccccc1)C(=O)*; X10 = O=C([C@H](Cc1ccccc1)N(CCCc1ccccc1)[*:1])[*:2]; X14 = O=C([C@H](Cc1ccccc1)N(CC1CCCCC1)CC1CCCCC1)*; X23 = O=C([C@H](Cc1ccccc1)N(CCC1CCCC1)[*:1])[*:2]; X24 = CC(C)CCN([C@@H](Cc1ccccc1)C(=O)[*:2])[*:1]; X22 = CCCCCN([C@@H](CCc1ccccc1)C(=O)[*:2])[*:1]; X3 = CCCCCCCN([C@@H](Cc1ccccc1)C(=O)[*:2])[*:1]; X16 = CCCCCN([C@@H](Cc1ccccc1)C(=O)[*:2])[*:1]; X17 = CSCCCN([C@@H](Cc1ccccc1)C(=O)[*:2])[*:1]; X12 = CCCCCN([C@H](Cc1ccccc1)C(=O)[*:2])[*:1]; X15 = CCCCN([C@@H](Cc1ccccc1)C(=O)[*:2])[*:1]; X13 = CN(CC1CCCCC1)[C@@H](Cc1ccccc1)C(=O)*; X6 = CCCCCN(CCCCC)[C@@H](Cc1ccccc1)C(=O)*; X9 = CN(Cc1ccccc1)[C@@H](Cc1ccccc1)C(=O)*; X11 = O=C([C@@H]1Cc2ccccc2CN1CC1CCCCC1)*; Benzoyl(2-Ph) = O=C(c1ccccc1-c1ccccc1)*; X19 = CC(C)(C)CN1Cc2ccccc2C[C@H]1C(=O)*; Butanoyl(2-OPh) = CCC(Oc1ccccc1)C(=O)*; X5 = CCCCCN(C)[C@@H](Cc1ccccc1)C(=O)*; X7 = CCCCCCC(Oc1ccc2ccccc2c1)C(=O)*; X20 = CCCCC(Oc1cccc2ccccc12)C(=O)*; X4 = CCCCCN1Cc2ccccc2C[C@H]1C(=O)*; Cha = N[C@@H](CC1CCCCC1)C(=O)O; X21 = CCCCC(Oc1ccccc1)C(=O)*

These molecules were tested against T1, thrombin receptor (Homo sapiens, UniProt P25116) (assay: Platelet aggregation assay for thrombin receptor antagonist activity (washed human platelets stimulated with α-thrombin)). Details: not given.
T1 construct: washed human platelets are prepared from blood drawn from healthy volunteers; endogenous in cells; host or cells: washed human platelets from healthy volunteers
T1 sequence (P25116 22-425): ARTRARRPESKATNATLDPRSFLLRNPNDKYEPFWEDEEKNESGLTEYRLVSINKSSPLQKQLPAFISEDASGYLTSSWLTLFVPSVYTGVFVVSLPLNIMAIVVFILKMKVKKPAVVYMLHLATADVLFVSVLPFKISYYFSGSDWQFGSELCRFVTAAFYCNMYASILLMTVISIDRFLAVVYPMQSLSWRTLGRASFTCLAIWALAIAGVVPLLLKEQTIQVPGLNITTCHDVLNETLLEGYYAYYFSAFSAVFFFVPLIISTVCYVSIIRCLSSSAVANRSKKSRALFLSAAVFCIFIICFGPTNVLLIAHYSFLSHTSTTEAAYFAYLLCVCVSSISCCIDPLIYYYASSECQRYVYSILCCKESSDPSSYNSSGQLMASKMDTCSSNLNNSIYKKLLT
Assay type: cell-based
Experimental: The compounds of the present invention may be tested for thrombin receptor antagonist activity by using a platelet aggregation assay. In this assay, washed human platelets are prepared from blood drawn from healthy volunteers who have not ingested any medications for two weeks prior to donation. Blood is drawn into 12.5% (vol/vol) ACD (85 mM sodium citrate, 111 mM dextrose, 71 mM citric acid) containing 0.1% (vol/vol) PGI2 (0.05 mg/mL PGI2, 100 mM Tris, pH 12). Platelet-rich plasma was obtained by centrifugation at 160×g for 20 minutes. The platelets were pelleted by centrifugation at 760×g for 10 minutes and resuspended in CGS (13 mM trisodium citrate, 120 mM sodium chloride, 30 mM dextrose, pH 7.0) containing 0.1% (vol/vol) PGI2, repelleted and resuspended in Tyrodes buffer (10 mM Hepes, 12 mM sodium bicarbonate, 138 mM sodium chloride, 5.5 mM glucose, 2.9 mM potassium chloride, 1.0 mM calcium chloride, pH 7.4) and stored at 37° C. Approximately 0.4-10 nM α-thrombin is used to stimulate platelet aggregation in control reactions which are monitored by aggregometry using an aggregometer. Candidate antagonists are added to the platelet mixture followed by the addition of thrombin in order to assess their ability to prevent thrombin-mediated aggregation.
Platelet aggregation can also be measured with washed platelets in 96-well microtiter plates as described in Fratantoni, J. C. et al., Am. J. Clin. Pathol. 94:613-617 (1990). The ability of the antagonists to block the thrombin receptor was assessed in this assay using various concentrations of antagonists. The concentration at which 50% inhibition of platelet aggregation is achieved is defined as IC50.

Structure (SMILES) | IC50 [µM]
N=C(N)NCCC[C@H](NC(=O)[C@H](CC1CCCCC1)NC(=O)[C@H](CC1CCCCC1)NC(=O)[C@H](Cc1ccccc1)NCCC1CCCC1)C(=O)N[C@@H](CCCCN)C(=O)N1CCC[C@H]1C(=O)N[C@@H](CC(N)=O)C(=O)N[C@@H](CC(=O)O)C(=O)N[C@@H](CCCCN)C(N)=O [Compound 6] (H-[X23][Cha][Cha]RKPNDK-NH2) | 10
N=C(N)NCCC[C@H](NC(=O)[C@H](CC1CCCCC1)NC(=O)[C@H](CC1CCCCC1)NC(=O)[C@H](Cc1ccccc1)NCCCc1ccccc1)C(=O)N[C@@H](CCCCN)C(=O)N1CCC[C@H]1C(=O)N[C@@H](CC(N)=O)C(=O)N[C@@H](CC(=O)O)C(=O)N[C@@H](CCCCN)C(N)=O [Compound 7] (H-[X10][Cha][Cha]RKPNDK-NH2) | 5
CCCCCN[C@@H](Cc1ccccc1)C(=O)N[C@@H](CC1CCCCC1)C(=O)N[C@@H](CC1CCCCC1)C(=O)N[C@@H](CCCNC(=N)N)C(=O)N[C@@H](CCCCN)C(N)=O [Compound 14] (H-[X16][Cha][Cha]RK-NH2) | 5
CCCCCN(C)[C@@H](Cc1ccccc1)C(=O)N[C@@H](CC1CCCCC1)C(=O)N[C@@H](CC1CCCCC1)C(=O)N[C@@H](CCCNC(=N)N)C(=O)N[C@@H](CCCCN)C(N)=O [Compound 15] (X5-[Cha][Cha]RK-NH2) | 10
CN(CC(c1ccccc1)c1ccccc1)[C@@H](Cc1ccccc1)C(=O)N[C@@H](CC1CCCCC1)C(=O)N[C@@H](CC1CCCCC1)C(=O)N[C@@H](CCCNC(=N)N)C(=O)N[C@@H](CCCCN)C(N)=O [Compound 16] (X18-[Cha][Cha]RK-NH2) | 10
CCCCCN[C@H](Cc1ccccc1)C(=O)N[C@@H](CC1CCCCC1)C(=O)N[C@@H](CC1CCCCC1)C(=O)N[C@@H](CCCNC(=N)N)C(=O)N[C@@H](CCCCN)C(N)=O [Compound 22] (H-[X12][Cha][Cha]RK-NH2) | 25

Same assay, conditions: washed human platelets, thrombin-mediated aggregation; read-out: IC50 (concentration at which 50% inhibition of platelet aggregation is achieved)

Structure (SMILES) | IC50 [µM]
CC(C)CCN[C@@H](Cc1ccccc1)C(=O)N[C@@H](CC1CCCCC1)C(=O)N[C@@H](CC1CCCCC1)C(=O)N[C@@H](CCCNC(=N)N)C(=O)N[C@@H](CCCCN)C(=O)N1CCC[C@H]1C(=O)N[C@@H](CC(N)=O)C(=O)N[C@@H](CC(=O)O)C(=O)N[C@@H](CCCCN)C(N)=O [Compound 1] (H-[X24][Cha][Cha]RKPNDK-NH2) | 5
CSCCCN[C@@H](Cc1ccccc1)C(=O)N[C@@H](CC1CCCCC1)C(=O)N[C@@H](CC1CCCCC1)C(=O)N[C@@H](CCCNC(=N)N)C(=O)N[C@@H](CCCCN)C(=O)N1CCC[C@H]1C(=O)N[C@@H](CC(N)=O)C(=O)N[C@@H](CC(=O)O)C(=O)N[C@@H](CCCCN)C(N)=O [Compound 2] (H-[X17][Cha][Cha]RKPNDK-NH2) | 10
CCCCCCCN[C@@H](Cc1ccccc1)C(=O)N[C@@H](CC1CCCCC1)C(=O)N[C@@H](CC1CCCCC1)C(=O)N[C@@H](CCCNC(=N)N)C(=O)N[C@@H](CCCCN)C(=O)N1CCC[C@H]1C(=O)N[C@@H](CC(N)=O)C(=O)N[C@@H](CC(=O)O)C(=O)N[C@@H](CCCCN)C(N)=O [Compound 3] (H-[X3][Cha][Cha]RKPNDK-NH2) | 10
CCCCN[C@@H](Cc1ccccc1)C(=O)N[C@@H](CC1CCCCC1)C(=O)N[C@@H](CC1CCCCC1)C(=O)N[C@@H](CCCNC(=N)N)C(=O)N[C@@H](CCCCN)C(=O)N1CCC[C@H]1C(=O)N[C@@H](CC(N)=O)C(=O)N[C@@H](CC(=O)O)C(=O)N[C@@H](CCCCN)C(N)=O [Compound 4] (H-[X15][Cha][Cha]RKPNDK-NH2) | 5
CCCCCN[C@@H](Cc1ccccc1)C(=O)N[C@@H](CC1CCCCC1)C(=O)N[C@@H](CC1CCCCC1)C(=O)N[C@@H](CCCNC(=N)N)C(=O)N[C@@H](CCCCN)C(=O)N1CCC[C@H]1C(=O)N[C@@H](CC(N)=O)C(=O)N[C@@H](CC(=O)O)C(=O)N[C@@H](CCCCN)C(N)=O [Compound 5] (H-[X16][Cha][Cha]RKPNDK-NH2) | 2.5
N=C(N)NCCC[C@H](NC(=O)[C@H](CC1CCCCC1)NC(=O)[C@H](CC1CCCCC1)NC(=O)[C@H](Cc1ccccc1)N(CC1CCCCC1)CC1CCCCC1)C(=O)N[C@@H](CCCCN)C(=O)N1CCC[C@H]1C(=O)N[C@@H](CC(N)=O)C(=O)N[C@@H](CC(=O)O)C(=O)N[C@@H](CCCCN)C(N)=O [Compound 8] (X14-[Cha][Cha]RKPNDK-NH2) | 5
CCCCCN[C@@H](CCc1ccccc1)C(=O)N[C@@H](CC1CCCCC1)C(=O)N[C@@H](CC1CCCCC1)C(=O)N[C@@H](CCCNC(=N)N)C(=O)N[C@@H](CCCCN)C(N)=O [Compound 9] (H-[X22][Cha][Cha]RK-NH2) | 15
CCC(Oc1ccccc1)C(=O)N[C@@H](CC1CCCCC1)C(=O)N[C@@H](CC1CCCCC1)C(=O)N[C@@H](CCCNC(=N)N)C(=O)N[C@@H](CCCCN)C(N)=O (stereo partly drawn) [Compound 10, 2-Phenoxybutyryl-Cha-Cha-Arg-Lys-NH2] ({Butanoyl(2-OPh)}-[Cha][Cha]RK-NH2) | 10
CCCCCN1Cc2ccccc2C[C@H]1C(=O)N[C@@H](CC1CCCCC1)C(=O)N[C@@H](CC1CCCCC1)C(=O)N[C@@H](CCCNC(=N)N)C(=O)N[C@@H](CCCCN)C(N)=O [Compound 11, (N-n-pentyl-Tic)-Cha-Cha-Arg-Lys-NH2] (X4-[Cha][Cha]RK-NH2) | 2.5
N=C(N)NCCC[C@H](NC(=O)[C@H](CC1CCCCC1)NC(=O)[C@H](CC1CCCCC1)NC(=O)[C@@H]1Cc2ccccc2CN1CC1CCCCC1)C(=O)N[C@@H](CCCCN)C(N)=O [Compound 12] (X11-[Cha][Cha]RK-NH2) | 20
CC(C)(C)CN1Cc2ccccc2C[C@H]1C(=O)N[C@@H](CC1CCCCC1)C(=O)N[C@@H](CC1CCCCC1)C(=O)N[C@@H](CCCNC(=N)N)C(=O)N[C@@H](CCCCN)C(N)=O [Compound 13] (X19-[Cha][Cha]RK-NH2) | 5
CN(Cc1cccc(Oc2ccccc2)c1)[C@@H](Cc1ccccc1)C(=O)N[C@@H](CC1CCCCC1)C(=O)N[C@@H](CC1CCCCC1)C(=O)N[C@@H](CCCNC(=N)N)C(=O)N[C@@H](CCCCN)C(N)=O [Compound 17] (X1-[Cha][Cha]RK-NH2) | 15
CN(Cc1ccc(-c2ccccc2)cc1)[C@@H](Cc1ccccc1)C(=O)N[C@@H](CC1CCCCC1)C(=O)N[C@@H](CC1CCCCC1)C(=O)N[C@@H](CCCNC(=N)N)C(=O)N[C@@H](CCCCN)C(N)=O [Compound 18] (X25-[Cha][Cha]RK-NH2) | 5
CN(Cc1ccccc1)[C@@H](Cc1ccccc1)C(=O)N[C@@H](CC1CCCCC1)C(=O)N[C@@H](CC1CCCCC1)C(=O)N[C@@H](CCCNC(=N)N)C(=O)N[C@@H](CCCCN)C(N)=O [Compound 19] (X9-[Cha][Cha]RK-NH2) | 30
CN(CC1CCCCC1)[C@@H](Cc1ccccc1)C(=O)N[C@@H](CC1CCCCC1)C(=O)N[C@@H](CC1CCCCC1)C(=O)N[C@@H](CCCNC(=N)N)C(=O)N[C@@H](CCCCN)C(N)=O [Compound 20] (X13-[Cha][Cha]RK-NH2) | 15
CCCCCN(CCCCC)[C@@H](Cc1ccccc1)C(=O)N[C@@H](CC1CCCCC1)C(=O)N[C@@H](CC1CCCCC1)C(=O)N[C@@H](CCCNC(=N)N)C(=O)N[C@@H](CCCCN)C(N)=O [Compound 21, (N,N-di-n-pentyl-Phe)-Cha-Cha-Arg-Lys-NH2] (X6-[Cha][Cha]RK-NH2) | 10
CCCCCCC(Oc1ccc2ccccc2c1)C(=O)N[C@@H](CC1CCCCC1)C(=O)N[C@@H](CC1CCCCC1)C(=O)N[C@@H](CCCNC(=N)N)C(=O)N[C@@H](CCCCN)C(N)=O (stereo partly drawn) [Compound 23] (X7-[Cha][Cha]RK-NH2) | 5
CCCCC(Oc1ccccc1)C(=O)N[C@@H](CC1CCCCC1)C(=O)N[C@@H](CC1CCCCC1)C(=O)N[C@@H](CCCNC(=N)N)C(=O)N[C@@H](CCCCN)C(N)=O (stereo partly drawn) [Compound 24] (X21-[Cha][Cha]RK-NH2) | 15
N=C(N)NCCC[C@H](NC(=O)[C@H](CC1CCCCC1)NC(=O)[C@H](CC1CCCCC1)NC(=O)c1ccccc1-c1ccccc1)C(=O)N[C@@H](CCCCN)C(N)=O [Compound 25] ({Benzoyl(2-Ph)}-[Cha][Cha]RK-NH2) | 25
CCCCCC/C(=C\c1ccccc1)CN[C@@H](CC1CCCCC1)C(=O)N[C@@H](CC1CCCCC1)C(=O)N[C@@H](CCCNC(=N)N)C(=O)N[C@@H](CCCCN)C(N)=O [Compound 26] | 7.5
CCCCC(Oc1cccc2ccccc12)C(=O)N[C@@H](CC1CCCCC1)C(=O)N[C@@H](CC1CCCCC1)C(=O)N[C@@H](CCCNC(=N)N)C(=O)N[C@@H](CCCCN)C(N)=O (stereo partly drawn) [Compound 27] (X20-[Cha][Cha]RK-NH2) | 5
